Source: US6517838B1, “Decorin binding protein essential peptides and methods of use” (The Texas A&M University System, priority 2000, dated 2003)
Values joined by “and” are separate entries in the source; they are usually repeats but may differ in a detail not shown here. Equal entries are not always repeated. Where two headings read alike, the source gives them in different places. Ends that are not written are not given here.

Legend:
decorin [1] = target: T1, decorin (Bos taurus, UniProt P21793); test: Inhibition ELISA: decorin attachment to DbpA-coated wells; format: binding, bovine; details: 5 μg inhibitor pre-incubated with biotin-conjugated decorin, FIG. 3
T1 construct: Decorin from bovine fetal skin was purified and stored in 4 M guanidine hydrochloride; from tissue; host or cells: decorin from bovine fetal skin; DbpA made in E. coli JM101
Experimental: Immulon-1 microtiter plate wells were coated with 0.4 μg of DbpA in 50 μl of PBS over night at 4° C. The wells were washed and then blocked as described above. During the blocking step, 0.12 μg/ml of biotin-conjugated decorin was pre-incubated at 37° C. with 5 μg of each DbpA-derived peptide or DbpA. After washing, 100 μl of the biotin conjugated decorin/inhibitor mixture was added to the wells and incubated for 1 h. After washing, the wells were incubated with AP-conjugated streptavidin and developed as described above.
(§1) Decorin from bovine fetal skin was purified and stored in 4 M guanidine hydrochloride at −80° C. and dialyzed extensively against PBS before use. Decorin was labeled with digoxigenin-3-O-methylcarbonyl-ε-aminocaproic acid-N-hydroxy-succinimide ester (digoxigenin) (Boehringer Mannheim, Indianapolis. Ind.) according to the manufacturer's instructions and stored at −20° C. To label decorin with biotin, 7.5 mg of NHS-LC-Biotin (sulfosuccinimidyl-6-(biotinamido) hexanoate) (Pierce, Rockford, Ill.) was dissolved in 100 μl of dimethyl sulfoxide and combined with 0.5 mg of decorin and 0.5 ml of 0.2 M sodium borate (pH 8.0) in a total reaction volume of 1 ml.
Confirmation of the critical binding sites in DbpA for decorin and of the biophysical stability of these peptides was tested in an inhibition ELISA. DbpA, peptides P2-P9, chemically modified peptides P2 Mod-P9 Mod, and an irrelevant peptide from the Staphylococcus aureus collagen-binding adhesin, CNA4 (OSKITVDNTKNTIDVTIQG) (SEQ ID 36) were used as inhibitors of decorin attachment to DbpA-coated wells.

recombinant DbpA = test: Delayed-type hypersensitivity (DTH) to DbpA, footpad swelling in immunized mice; format: in vivo, B. burgdorferi; details: C3H/HeJ mice immunized with 20 μg, challenged with 2 μg recombinant DbpA in footpad, 24 h
Experimental: (§2) Mice were immunized with recombinant DbpA (SEQ ID 1), P2 (SEQ ID 3), P4 (SEQ ID 5), P5 (SEQ ID 6), P4/P5 (SEQ ID 5/SEQ ID 6), P9 (SEQ ID 10), or the corresponding lysine modified counterparts (P2 Mod, P4 Mod, P5 Mod or P9 Mod) using the immunization schedule established by Hanson (11). Briefly, mice were immunized with 20 μg of protein or peptide in complete Freund's adjuvant (CFA) (Week 1), boosted at week 4 with the same dose in incomplete Freund's adjuvant (IFA) and infected at week 6.
Native C3H/HeJ mice immunized with DbpA (SEQ ID 1), P2 (SEQ ID 3), P4 (SEQ ID 5), P5 (SEQ ID 6), P4/P5 (SEQ ID 5/SEQ ID 6), P9 (SEQ ID 10), or the corresponding lysine modified counterparts (P2 Mod, P4 Mod, P5 Mod or P9 Mod) were challenged with 2 μg of recombinant DbpA in PBS (50 μl/footpad) 7 weeks after the initial immunization. All footpads were measured before and 24 h after challenge using a spring-loaded micrometer (Mitutoyo, Tokyo, Japan) as described (23). The mice were anesthetized as described above during footpad measurements and injections. Swelling was determined by subtracting the footpad measurements before challenge from those taken 24 h after challenge.
DTH is an in vivo method of testing T cell-dependent immune responses that are manifested by inflammation at the site of antigenic challenge. Mice immunized with DbpA (SEQ ID 1), P2 (SEQ ID 3), P4 (SEQ ID 5), P5 (SEQ ID 6), P4/P5 (SEQ ID 5/SEQ ID 6) combined, P9 (SEQ ID 10), or the corresponding lysine-modified peptides were challenged in the footpad with 2 μg of recombinant DbpA (SEQ ID 1). Footpad measurements were taken before and after challenge as described above. DbpA (SEQ ID 1)-immunized mice developed a significant footpad swelling of 53.3±3.5 (not shown) compared to mice immunized with adjuvant alone or naive mice receiving only the DbpA (SEQ ID 1) challenge. Peptide-immunized mice, with the exception of P2 (SEQ ID 3), also developed a significant DTH response to DbpA (SEQ ID 1) compared to the lysine-modified controls.

[2] = test system: B. burgdorferi strain B31; test: Arthritis assessment, histopathology of hind tibiotarsal joints of immunized infected mice; format: in vivo; details: for Mean Arthritis Rating: severity score 0-4 by neutrophil infiltrate; for Mean Arthritis Rating / % Incidence (arthritis): day 14 post infection; for % Incidence (arthritis): immunized mice, tibiotarsal joint histology
Experimental: as §2
Mice (15 mice/group) were anesthetized with Metofane (methoxyflurane; Pitman-Moore, Mundelein, Ill.) and 10 mice/ group were infected i.d. at the base of the tail with 10^4 Borrelia in 100 μl of media 6 six weeks after the first immunization. The remaining 5 mice/group were tested for a DTH response to recombinant DbpA. Following infection, mice were bled 7 and 14 days postinfection. Serum was collected for antibody analysis and blood cultured for the detection of live spirochetes by inoculating 5 ml of BSK II medium with 50 μl of blood from each infected mouse and cultured for 2 weeks at 34° C. as described above. Also on day 14 postinfection, mice were sacrificed and one hind tibiotarsal joint, heart, bladder, and a 3 mm skin biopsy from the ear were aseptically removed and inoculated into separate tubes containing 6 ml of BSK II medium with antibiotics (50 μg/ml rifampacin and 100 μg/ml phosphomycin (Sigma), and incubated for 2 weeks at 34° C. as described above. Evidence of arthritis was determined by histopathological examination of formalin-fixed hind tibiotarsal joint samples.
Evidence of arthritis was determined by histopathological examination of formalin-fixed hind tibiotarsal joint samples. Tissues for histological examination were embedded in paraffin and stained with hematoxylin and eosin. All sections were examined without knowledge of the vaccination status of the mouse. Arthritis was scored by one of two methods. A positive/negative assessment was used, as well as assignment of an arthritis severity score. Joints were scored according to the levels of infiltrate (neutrophils) as follows: 0, no arthritis, 1, minimal or rare (≦10% tissue involvement); 2, mild (10-20%); […]; and 4, severe (>50%).
A similar trend was also observed for joints examined for arthritis (Table I). DbpA-(SEQ ID 1), P4-(SEQ ID 5), and P5-(SEQ ID 6) immunized mice had the lowest arthritis ratings (0.2, 1.2, and 0.4, respectively) and lowest arthritis incidence (20, 60, and 20%, respectively).

[3] = test system: B. burgdorferi strain B31; test: Joint cultures for spirochetes after infection of immunized mice; format: in vivo; details: immunized C3H/HeJ mice, joints 14 days post infection
Experimental: as §2
Low-passage B. burgdorferi strain B31 (passage 5) was used in this study and cultured in BSK II (Barbour-Stoenner-Kelly) medium at 34° C. (22). Bacterial cultures were incubated in CO2-enriched atmosphere in a GasPak chamber (BBL, Baltimore, Md.) containing BBL GasPak Plus envelopes and a GasPak anaerobic indicator (Beckton dickinson, Cockeysville, Md.) until the cells reached log phase. Bacterial counts were determined using dark field microscopy and a Petroff-Hausser chamber.
Mice (15 mice/group) were anesthetized with Metofane (methoxyflurane; Pitman-Moore, Mundelein, Ill.) and 10 mice/ group were infected i.d. at the base of the tail with 10^4 Borrelia in 100 μl of media 6 six weeks after the first immunization. The remaining 5 mice/group were tested for a DTH response to recombinant DbpA. Following infection, mice were bled 7 and 14 days postinfection. […]

decorin [4] = target: T1, decorin; test: Western ligand blot with digoxigenin-labeled decorin; format: binding, bovine; details: SDS-PAGE reducing, probed with digoxigenin-labeled decorin
Experimental: as §1
Proteins (purified DbpA, DbpA site-directed mutants and OspC) were subjected to SDS-PAGE (reducing conditions) and probed with rabbit anti-DbpA polyclonal sera (R625) or with digoxigenin-labeled decorin.
Further, the side chains of lysine residues were chemically modified and the binding properties of the resulting protein examined. […] Both forms of DbpA migrated as two bands, monomers at 20 and 21 kDa and dimers at 40 and 42 kDa for DbpA and chemically modified DbpA (K-mod), respectively. The decorin binding activity of the DbpA and lysine-modified DbpA was examined in a Western ligand blot assay (FIG. 6B).

decorin [5] = target: T1, decorin; test: Binding of biotin-conjugated decorin to protein-coated microtiter wells; design: species or system bovine; details: 0.4 μg protein coated, 0.12 μg/ml biotin-decorin, compared to wild-type DbpA
Experimental: as §1
Immulon-1 microtiter plate wells (Dynatech Labs, Chantilly, Va.) were coated with 0.4 μg of DbpA (SEQ ID 1), DbpA mutants and K-mod in 50 μl PBS overnight at 4° C. The wells were washed and then blocked with 200 μl of Super Block (Pierce) for 1 h. After washing, 0.12 μg/ml of biotin-conjugated decorin in 100 μl of Super Block was added to the wells and incubated for 1 h. After washing, 100 μl of a 1:10,000 dilution of alkaline phosphatase (AP)-conjugated streptavidin (1 U/ml) (Boehringer Mannheim) was added and incubated for 1 h. […] The absorbance was determined in a Microplate Reader (Molecular Devices, Menlo Park, Calif.). […]

[6] = target: T2, decorin from bovine fetal skin (bovine), P21793; test: inhibition ELISA: biotin-conjugated decorin pre-incubated with 5 ug peptide, added to DbpA-coated wells
T2 chain: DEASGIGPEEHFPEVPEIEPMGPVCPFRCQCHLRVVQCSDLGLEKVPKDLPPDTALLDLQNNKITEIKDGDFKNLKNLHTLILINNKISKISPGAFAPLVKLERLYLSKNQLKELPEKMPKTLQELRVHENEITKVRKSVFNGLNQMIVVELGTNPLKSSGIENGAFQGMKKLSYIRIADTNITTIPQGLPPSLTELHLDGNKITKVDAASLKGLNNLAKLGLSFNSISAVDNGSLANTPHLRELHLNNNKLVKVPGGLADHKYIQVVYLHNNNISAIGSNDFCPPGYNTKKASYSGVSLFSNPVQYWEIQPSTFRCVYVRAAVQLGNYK

[7] = target: T2, decorin from bovine fetal skin …; test: as above

With “P9: synthetic 25 amino acid DbpA peptide containing K163 and K170 (REKLQRVHKKNQDTLKKKNTEDSTAKS) [Peptide P9]” as the molecule, how does the “inhibition of decorin attachment to DbpA-coated wells” value (“inhibition of decorin attachment” below) (decorin [1]) read?
The value was 42% and 43%.

What about the “DTH response to DbpA (in words)” value (recombinant DbpA) of the same molecule?
The value was “response greater than that of control groups but with less intensity”.

What about the “Mean Arthritis Rating” value [2] of the same molecule?
Its value is 1.25.

Which “% Incidence (arthritis)” value [2] does the source give for “P9 Mod: lysine modified counterpart of P9 (REKLQRVHKKNQDTLKKKNTEDSTAKS; also: chemically modified lysines)” here?
Its value is 80%.

And the “Mean Arthritis Rating” value [2]?
Its value is 2.0.

For “P5: synthetic 25 amino acid DbpA peptide that maps to the K82 region (AKVRATTVAEKFVIAIEEEATKLKE) [Peptide P5]”, which “inhibition of decorin attachment” value (decorin [1]) is on record?
Its value is 92%.

What about the “DTH response to DbpA (in words)” value (recombinant DbpA) of the same molecule?
Its value is “significant responses”.

And the positive joint cultures [3]?
The positive joint cultures was 60%.

And the “arthritis incidence and severity (in words)” value ([2]; immunized infected mice)?
Its value is “lowest”.

And the “% Incidence (arthritis)” value [2]?
Its value is 20%.

What about the “Mean Arthritis Rating” value [2] of the same molecule?
The value was 0.4.

How did the “inhibition of decorin attachment” value (decorin [1]) turn out when “P4: synthetic 25 amino acid DbpA peptide that maps to the K82 region (DAFKDKKTGSGVSENPFILEAKVRA) [Peptide P4]” was run?
Its value is 64%.

What about the “DTH response to DbpA (in words)” value (recombinant DbpA) of the same molecule?
The value was “response greater than that of control groups but with less intensity”.

What about the “% Incidence (arthritis)” value [2] of the same molecule?
The value was 60%.

What about the “Mean Arthritis Rating” value [2] of the same molecule?
The value was 1.2.

With “P4 Mod: lysine modified counterpart of P4 (DAFKDKKTGSGVSENPFILEAKVRA; also: chemically modified lysines)” as the molecule, how does the “% Incidence (arthritis)” value [2] read?
Its value is 2.0%.

And the “Mean Arthritis Rating” value [2]?
Its value is 2.0.

How did the “inhibition of decorin attachment” value (decorin [1]) turn out when “P2: overlapping synthetic 25 amino acid peptide of recombinant DbpA, contains a cystine residue (LLISCGLTGATKIKLESSAKAIVD) [Peptide P2]” was run?
The value was 44% and 42%.

What about the “DTH response to DbpA (in words)” value (recombinant DbpA) of the same molecule?
The value was “no response”.

What about the “Mean Arthritis Rating” value [2] of the same molecule?
The value was 1.4.

What does the source list for “P5 Mod: lysine modified counterpart of P5 (AKVRATTVAEKFVIAIEEEATKLKE; also: chemically modified lysines)”?
% Incidence (arthritis) [2]: 100%; Mean Arthritis Rating [2]: 3.2

B1: K-mod: DbpA with lysine residues chemically modified by DL-glyceraldehyde and sodium cyanoborohydride (protein)
chain: ATKIKLESSAKAIVDEIDAIKKKAASMGVNFDAFKDKKTGSGVSENPFILEAKVRATTVAEKFVIAIEEEATKLKETGSSGEFSAMYDLMFEVSKPLQELGIQEMTKTVSMAAEENPPTTAQGVLEIAKKMREKLQRVHKKNQDTLKKKNTEDSTAKS
modifications: left off: small tags and cut ends
notes: DbpA with lysine residues chemically modified by DL-glyceraldehyde and sodium cyanoborohydride
How did the “decorin binding in Western ligand blot” value (decorin [4]) turn out when B1 was run?
The value was “loss of decorin binding”.

And the “binding of biotin-conjugated decorin to coated microtiter wells” value (decorin [5])?
Its value is “essentially unable to support the binding of decorin”.

Which results are given for REKLQRVHKKNQDTLKKKNTEDSTAKS (modifications not checked) [DbpA-derived synthetic peptide P9]?
inhibition of decorin attachment to DbpA-coated wells [6]: 43%; inhibition of decorin attachment to DbpA-coated wells [7]: 42%

AKVRATTVAEKFVIAIEEEATKLKE (modifications not checked) [DbpA-derived synthetic peptide P5] was tested. Which inhibition of decorin attachment to DbpA-coated wells [7] did it give?
The inhibition of decorin attachment to DbpA-coated wells was 92%.

How did the inhibition of decorin attachment to DbpA-coated wells [7] turn out when DAFKDKKTGSGVSENPFILEAKVRA (modifications not checked) [DbpA-derived synthetic peptide P4] was run?
The inhibition of decorin attachment to DbpA-coated wells was 64%.
